Positions of bridges follow the written chain, without caps; N, C: chain ends. Non-standard residues stand in square brackets, D forms with d. Residues, ends and D or L forms follow the SMILES beside them. *: point of attachment. X1 = CC[C@H](C)CCCCC(=O)*; Dab = NCC[C@H](N)C(=O)O
How the values were obtained:
[1] = Colistin concentration in plasma after CMS nebulization; type: in vivo; details: human, inhaled or intranasal, 20 patients
Description: Patients were treated with CMS (Xellia Pharmaceuticals ApS, Copenhagen, Denmark) at a total of 3.75 MIU (equivalent to 300 mg of CMS or 112.5 mg of CBA) administered four times a day at 6 h intervals. CMS was dissolved in 5 mL of normal saline and administered over 30 min through a jet nebulizer (Sileo 54, Macjin Medical, Seoul, Republic of Korea) connected to the ventilator circuit. Bronchoalveolar lavage fluid (BALF) was obtained by instilling 20 mL of normal saline into the right middle lobe or left lingular segmental bronchus using a bronchoscope, followed by immediate aspiration and collection into a syringe. Samples were collected immediately before the nebulization treatment and at 1, 3, and 5 h after the start of the treatment. Blood samples were collected before the nebulization treatment and at 1, 2, 3, and 5 h thereafter. Both BALF and blood samples were centrifuged at 3000× g for 10 min within 1 h of collection and the supernatant was isolated. Samples were then stored in a refrigerator at a temperature below −70 °C.
A validated liquid chromatography–tandem mass spectrometry assay was used to determine colistin concentrations in BALF and plasma samples. The HPLC equipment consisted of an Agilent 1200 series modular system and an Atlantis C18 column (Company, Waters, Milford, MA, USA) (2.1 mm × 150 mm, 3.0 μm). Mobile phases A and B were water and acetonitrile, respectively. Both phases contained 0.1% formic acid. A gradient elution program was started at 10% B, increased to 35% for 1 min, maintained at this composition for 3.8 min, and returned to the initial composition for 5 min to re-equilibrate the column. Mass spectrometry (MS) was performed using a triple-quadruple mass spectrometer (SCIEX QTRAP5500, Applied Biosystems, Foster City, CA, USA) with an electrospray ionization (ESI) interface. The ESI source was set to positive ionization mode. The parent to product transition (m/z) was 578.483→101.071 for colistin A, 585.453→101.071 for colistin B, and 602.527→101.000 for polymyxin B. Data acquisition and processing were performed using the Analyst software (version 1.7.1; Applied Biosystems, Foster City, CA, USA). Stock solutions of colistin and IS were prepared in deionized water at concentrations of 10 mg/mL, and both were stored at −20 °C. Working solutions of colistin were prepared in deionized water (dilutions of 2, 5, 10, 50, 100, 500, and 1000 μg/mL). Calibration standards were prepared by spiking 247.5 μL of drug-free plasma with 2.5 μL of colistin working solution. Low (colistin A; 11.16 ng/mL, colistin B; 48.84 ng/mL), moderate (colistin A; 186 ng/mL, colistin B; 814 ng/mL), and high (colistin A; 1488 ng/mL, colistin B; 6512 ng/mL) concentrations of QC samples were prepared. Sample pretreatment involved a solid phase extraction. A 250 μL aliquot of plasma was pipetted into a 1.5 mL Eppendorf tube, to which 10 μL of IS (10 μg/mL, polymyxin B) and 740 μL of deionized water were added. This mixture was loaded into a cartridge that had been preconditioned twice with 1 mL of methanol and 1 mL of deionized water. After the plasma mixture was loaded, the cartridge was washed with 1 mL of deionized water. One milliliter of methanol including 0.1% formic acid was used for extraction. Extraction liquid was evaporated by vacuum concentrator (Speedvac, Thermo Fisher Scientific Inc., Waltham, MA, USA) at 45 °C for 2.5 h. Samples were reconstituted in 100 μL deionized water containing 0.1% formic acid. […]

A. baumannii = details: among 2879 isolates, EUCAST; cited from earlier work

CC[C@H](C)CCCCC(=O)N[C@@H](CCN)C(=O)N[C@H](C(=O)N[C@@H](CCN)C(=O)N[C@H]1CCNC(=O)[C@H]([C@@H](C)O)NC(=O)[C@H](CCN)NC(=O)[C@H](CCN)NC(=O)[C@H](CC(C)C)NC(=O)[C@@H](CC(C)C)NC(=O)[C@H](CCN)NC1=O)[C@@H](C)O [colistin] (X1-[Dab]T[Dab][Dab][Dab][dL]L[Dab][Dab]T; lactam 4-C)
level at 1 h ([1]; 1 h after start (time by position in Figure 1c), CMS 0.9375 MIU nebulized over 30 min, LC-MS/MS, read-out: Median colistin concentration in plasma): 19.2 ng/mL
level at 2 h ([1]; 2 h after start (time by position in Figure 1c), CMS 0.9375 MIU nebulized over 30 min, LC-MS/MS, read-out: Median colistin concentration in plasma): 29.8 ng/mL
level at 3 h ([1]; 3 h after start (time by position in Figure 1c), CMS 0.9375 MIU nebulized over 30 min, LC-MS/MS, read-out: Median colistin concentration in plasma): 37.7 ng/mL
level at 5 h ([1]; 5 h after start (time by position in Figure 1c), CMS 0.9375 MIU nebulized over 30 min, LC-MS/MS, read-out: Median colistin concentration in plasma): 32.6 ng/mL
Cmax ([1]; nebulized CMS 0.9375 MIU over 30 min, monitored over 5 h, read-out: Observed peak colistin concentration in plasma, median (IQR)): 43.5 ng/mL
Isolates with a colistin MIC of 1 mg/L, number (%) (A. baumannii): 1451 (50.4%)
Isolates with a colistin MIC of 2 mg/L, number (%) (A. baumannii): 539 (18.7%)
Isolates with a colistin MIC of 4 mg/L, number (%) (A. baumannii): 54 (1.88%)

Reference: PMC10967270, “Intrapulmonary and Systemic Pharmacokinetics of Colistin Following Nebulization of Low-Dose Colistimethate Sodium in Patients with Ventilator-Associated Pneumonia Caused by Carbapenem-Resistant Acinetobacter baumannii” (Antibiotics, 2024)
